Test results reported in the supplement of paper PMC10307832.

Tests used:
Experiment in all cases: relative viability (nuclei count vs DMSO), 5 days (fraction); higher = more cells survive
[1] = compound: CC1=C(C(=O)N2C=CSC2=N1)CCN3CCC(=C(C4=CC=CC=C4)C5=CC=C(C=C5)F)CC3 + Cc1cc(Nc2cc(N3CCN(C)CC3)nc(Sc3ccc(NC(=O)C4CC4)cc3)n2)n[nH]1 [Tozasertib] (partner 0.1 µM)
Method in brief: (§1)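 Cells from lung cancer lines were seeded into 1536-well plates and, one day later, dosed by pin tool. Treatments were either a single drug or a fixed dose of an anchor drug with five library-drug doses (not always all listed) in √10 steps. After 5 days, nuclei were stained in a one-step fixation (final 0.05% Triton X-100, 1% formaldehyde, 1 ug/ml Hoechst) and counted on 4× images, and relative viability is the treated-to-vehicle nuclei ratio, as the median of duplicate plates.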

[2] = compound: CC1=C(C(=O)N2C=CSC2=N1)CCN3CCC(=C(C4=CC=CC=C4)C5=CC=C(C=C5)F)CC3 + Cc1nc(Nc2ncc(C(=O)Nc3c(C)cccc3Cl)s2)cc(N2CCN(CCO)CC2)n1 [Dasatinib] (partner 0.075 µM)
Method in brief: as §1

[3] = compound: CC1=C(C(=O)N2C=CSC2=N1)CCN3CCC(=C(C4=CC=CC=C4)C5=CC=C(C=C5)F)CC3 + CCNC(=O)c1noc(-c2cc(C(C)C)c(O)cc2O)c1-c1ccc(CN2CCOCC2)cc1 [Luminespib] (partner 0.01 µM)
Method in brief: as §1

[4] = compound: CC1=C(C(=O)N2C=CSC2=N1)CCN3CCC(=C(C4=CC=CC=C4)C5=CC=C(C=C5)F)CC3 + N=C(N)NC(=N)NCCc1ccccc1 [Phenformin] (partner 250 µM)
Method in brief: as §1

[5] = compound: CC1=C(C(=O)N2C=CSC2=N1)CCN3CCC(=C(C4=CC=CC=C4)C5=CC=C(C=C5)F)CC3 + COc1cccc2cc(-c3nc([C@H]4CC[C@H](C(=O)O)CC4)n4ncnc(N)c34)[nH]c12 [OSI-027] (partner 0.5 µM)
Method in brief: as §1

[6] = compound: CC1=C(C(=O)N2C=CSC2=N1)CCN3CCC(=C(C4=CC=CC=C4)C5=CC=C(C=C5)F)CC3 + COc1cc2c(Oc3ccc(NC(=O)C4(C(=O)Nc5ccc(F)cc5)CC4)cc3F)ccnc2cc1OCCCN1CCOCC1 [Foretinib] (partner 0.25 µM)
Method in brief: as §1

[7] = compound: CC1=C(C(=O)N2C=CSC2=N1)CCN3CCC(=C(C4=CC=CC=C4)C5=CC=C(C=C5)F)CC3
Method in brief: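 For viability, nuclei in each treated well were divided by nuclei in vehicle wells and the median across plates was taken. Lung cancer cell lines in 1536-well plates were pinned with five library-drug doses (not always all listed) spaced by √10, cultured 5 days without medium change, and imaged at 4× after Hoechst staining, with plates passing only at control CV below 25% and at least one doubling.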

[8] = compound: CC1=C(C(=O)N2C=CSC2=N1)CCN3CCC(=C(C4=CC=CC=C4)C5=CC=C(C=C5)F)CC3 + CC(=O)c1c(C)c2cnc(Nc3ccc(N4CCNCC4)cn3)nc2n(C2CCCC2)c1=O [Palbociclib] (partner 0.5 µM)
Method in brief: as §1

[9] = compound: CC1=C(C(=O)N2C=CSC2=N1)CCN3CCC(=C(C4=CC=CC=C4)C5=CC=C(C=C5)F)CC3 + Nc1ncn([C@H]2C[C@H](O)[C@@H](CO)O2)c(=O)n1 [Decitabine] (partner 2 µM)
Method in brief: as §1

[10] = compound: CC1=C(C(=O)N2C=CSC2=N1)CCN3CCC(=C(C4=CC=CC=C4)C5=CC=C(C=C5)F)CC3 + Nc1nc2[nH]cc(CCc3ccc(C(=O)N[C@@H](CCC(=O)O)C(=O)O)cc3)c2c(=O)[nH]1 [Pemetrexed] (partner 0.2 µM)
Method in brief: as §1

[11] = compound: CC1=C(C(=O)N2C=CSC2=N1)CCN3CCC(=C(C4=CC=CC=C4)C5=CC=C(C=C5)F)CC3 + NC(=O)Nc1cc(-c2cccc(F)c2)sc1C(=O)N[C@H]1CCCNC1 [AZD7762] (partner 0.2 µM)
Method in brief: as §1

[12] = compound: CC1=C(C(=O)N2C=CSC2=N1)CCN3CCC(=C(C4=CC=CC=C4)C5=CC=C(C=C5)F)CC3 + O=C(c1cc(Cc2n[nH]c(=O)c3ccccc23)ccc1F)N1CCN(C(=O)C2CC2)CC1 [Olaparib] (partner 8 µM)
Method in brief: as §1

[13] = compound: CC1=C(C(=O)N2C=CSC2=N1)CCN3CCC(=C(C4=CC=CC=C4)C5=CC=C(C=C5)F)CC3 + O=C(CCCCCCC(=O)Nc1ccccc1)NO [Vorinostat] (partner 1 µM)
Method in brief: as §1

[14] = compound: CC1=C(C(=O)N2C=CSC2=N1)CCN3CCC(=C(C4=CC=CC=C4)C5=CC=C(C=C5)F)CC3 + CC(=O)Nc1cccc(-n2c(=O)n(C3CC3)c(=O)c3c(Nc4ccc(I)cc4F)n(C)c(=O)c(C)c32)c1 [Trametinib] (partner 0.02 µM)
Method in brief: as §1

NCI-H1623 was tested, and the relative viability ([1]; first compound 0.08 µM) was 0.466, the relative viability ([1]; first compound 0.253 µM) was 0.434 and the relative viability ([1]; first compound 0.8 µM) was 0.446. The relative viability ([1]; first compound 2.53 µM) was 0.475, the relative viability ([1]; first compound 8 µM) was 0.419 and the relative viability ([2]; first compound 0.08 µM) was 0.473. It also gave a relative viability ([2]; first compound 0.253 µM) of 0.57, a relative viability ([2]; first compound 0.8 µM) of 0.5 and a relative viability ([2]; first compound 2.53 µM) of 0.536. For the same cell line, the relative viability ([2]; first compound 8 µM) was 0.549, the relative viability ([3]; first compound 0.08 µM) was 0.563 and the relative viability ([3]; first compound 0.253 µM) was 0.631. The relative viability ([3]; first compound 0.8 µM) was 0.521, the relative viability ([3]; first compound 2.53 µM) was 0.472 and the relative viability ([3]; first compound 8 µM) was 0.35. The relative viability ([4]; first compound 0.08 µM) was 0.706, the relative viability ([4]; first compound 0.253 µM) was 0.618 and the relative viability ([4]; first compound 0.8 µM) was 0.607. The relative viability ([4]; first compound 2.53 µM) was 0.564, the relative viability ([4]; first compound 8 µM) was 0.594 and the relative viability ([5]; first compound 0.08 µM) was 0.416. It also gave a relative viability ([5]; first compound 0.253 µM) of 0.411, a relative viability ([5]; first compound 0.8 µM) of 0.431 and a relative viability ([5]; first compound 2.53 µM) of 0.436. For the same cell line, the relative viability ([5]; first compound 8 µM) was 0.433, the relative viability ([6]; first compound 0.08 µM) was 0.632 and the relative viability ([6]; first compound 0.253 µM) was 0.968. It also gave a relative viability ([6]; first compound 0.8 µM) of 0.886, a relative viability ([6]; first compound 2.53 µM) of 0.819 and a relative viability ([6]; first compound 8 µM) of 0.826. The relative viability ([7]; 0.08 µM) was 0.887, the relative viability ([7]; 0.253 µM) was 1.03 and the relative viability ([7]; 0.8 µM) was 1.02. The relative viability ([7]; 2.53 µM) was 0.96 and the relative viability ([7]; 8 µM) was 0.87.
Cell Line NCI-H2342 has a relative viability ([1]; first compound 0.08 µM) of 0.559, a relative viability ([1]; first compound 0.253 µM) of 0.492 and a relative viability ([1]; first compound 0.8 µM) of 0.585. The relative viability ([1]; first compound 2.53 µM) was 0.504, the relative viability ([1]; first compound 8 µM) was 0.431 and the relative viability ([2]; first compound 0.08 µM) was 0.255. For the same cell line, the relative viability ([2]; first compound 0.253 µM) was 0.304, the relative viability ([2]; first compound 0.8 µM) was 0.291 and the relative viability ([2]; first compound 2.53 µM) was 0.306. The relative viability ([2]; first compound 8 µM) was 0.247, the relative viability ([3]; first compound 0.08 µM) was 0.657 and the relative viability ([3]; first compound 0.253 µM) was 0.791. For the same cell line, the relative viability ([3]; first compound 0.8 µM) was 0.789, the relative viability ([3]; first compound 2.53 µM) was 0.66 and the relative viability ([3]; first compound 8 µM) was 0.619. The relative viability ([8]; first compound 0.08 µM) was 0.48, the relative viability ([8]; first compound 0.253 µM) was 0.487 and the relative viability ([8]; first compound 0.8 µM) was 0.548. The relative viability ([8]; first compound 2.53 µM) was 0.519, the relative viability ([8]; first compound 8 µM) was 0.528 and the relative viability ([4]; first compound 0.08 µM) was 0.557. It also gave a relative viability ([4]; first compound 0.253 µM) of 0.605, a relative viability ([4]; first compound 0.8 µM) of 0.52 and a relative viability ([4]; first compound 2.53 µM) of 0.597. It also gave a relative viability ([4]; first compound 8 µM) of 0.523, a relative viability ([9]; first compound 0.08 µM) of 0.547 and a relative viability ([9]; first compound 0.253 µM) of 0.809. It also gave a relative viability ([9]; first compound 0.8 µM) of 0.697, a relative viability ([9]; first compound 2.53 µM) of 0.834 and a relative viability ([9]; first compound 8 µM) of 0.645. For the same cell line, the relative viability ([10]; first compound 0.08 µM) was 0.657, the relative viability ([10]; first compound 0.253 µM) was 0.821 and the relative viability ([10]; first compound 0.8 µM) was 0.76. It also gave a relative viability ([10]; first compound 2.53 µM) of 0.818, a relative viability ([10]; first compound 8 µM) of 0.634 and a relative viability ([11]; first compound 0.08 µM) of 0.382. The relative viability ([11]; first compound 0.253 µM) was 0.516, the relative viability ([11]; first compound 0.8 µM) was 0.436 and the relative viability ([11]; first compound 2.53 µM) was 0.566. It also gave a relative viability ([11]; first compound 8 µM) of 0.433, a relative viability ([5]; first compound 0.08 µM) of 0.567 and a relative viability ([5]; first compound 0.253 µM) of 0.617. It also gave a relative viability ([5]; first compound 0.8 µM) of 0.636, a relative viability ([5]; first compound 2.53 µM) of 0.602 and a relative viability ([5]; first compound 8 µM) of 0.622. For the same cell line, the relative viability ([12]; first compound 0.08 µM) was 0.38, the relative viability ([12]; first compound 0.253 µM) was 0.44 and the relative viability ([12]; first compound 0.8 µM) was 0.435. It also gave a relative viability ([12]; first compound 2.53 µM) of 0.426, a relative viability ([12]; first compound 8 µM) of 0.43 and a relative viability ([6]; first compound 0.08 µM) of 0.884. It also gave a relative viability ([6]; first compound 0.253 µM) of 1.02, a relative viability ([6]; first compound 0.8 µM) of 0.948 and a relative viability ([6]; first compound 2.53 µM) of 1.09. For the same cell line, the relative viability ([6]; first compound 8 µM) was 0.857, the relative viability ([13]; first compound 0.08 µM) was 0.63 and the relative viability ([13]; first compound 0.253 µM) was 0.882. It also gave a relative viability ([13]; first compound 0.8 µM) of 0.778, a relative viability ([13]; first compound 2.53 µM) of 0.795 and a relative viability ([13]; first compound 8 µM) of 0.6. For the same cell line, the relative viability ([14]; first compound 0.08 µM) was 0.667, the relative viability ([14]; first compound 0.253 µM) was 0.82 and the relative viability ([14]; first compound 0.8 µM) was 0.791. It also gave a relative viability ([14]; first compound 2.53 µM) of 0.886, a relative viability ([14]; first compound 8 µM) of 0.769 and a relative viability ([7]; 0.08 µM) of 0.761. It also gave a relative viability ([7]; 0.253 µM) of 1.03, a relative viability ([7]; 0.8 µM) of 0.949 and a relative viability ([7]; 2.53 µM) of 1.02. For the same cell line, the relative viability ([7]; 8 µM) was 0.792.
